Measurements: US20150056702A1, “METHOD AND KIT FOR CULTURING STEM CELLS” (China Medical University, priority 2013, published 2015)

Columns and labels:
ES cells = assay: DNA microarray analysis of ES cells; assay type: cell-based, mouse
Description: The DNA microarray analysis was used to determine whether the gene expression profiles in various pathways in cells will be affected when the cells were cultured by a BP-containing medium.
An experimental group medium (BP10 or BP 40), a LIF-containing medium (without BP), and a control group medium (without BP) were used respectively in a 6-well culture dish to culture ES cells with an initial density of 1×10^4 per well for 24 hours. Next, performing total RNA extraction and the obtained RNA was labeled with Cy3. Samples were hybridized to Agilent Mouse G3 Whole Genome Oligo 86×60K microarrays (Agilent) according to the manufacturer's instructions. Arrays were scanned with a Microarray Scanner System and data was analyzed by using a GeneSpring GX software (Agilent).
According to the related research at present, the Jak-Stat signaling pathway is the most relevant in terms of stem cell self-renewal and pluripotency maintenance.

iPS cells = assay: AP staining and immunofluorescence staining of the generated iPS cells; assay type: cell-based, mouse; settings: experimental group (T+P), BP10 medium
Description: The AP activity of the obtained iPS cells was determined by AP staining. The expression levels of Nanog and SSEA1 as well as the embryoid body formation and differentiation were observed by immunofluorescence staining.

[1] = BP40 medium (about 40 μg BP/ml), ES cells, 24 hours

Structure (SMILES): CCCC=C1OC(=O)c2ccccc21 [BP, n-butylidenephthalide]
- Amino acid metabolism: D, number of down-regulated genes (ES cells; [1]): 2
- Amino acid metabolism: I, number of up-regulated genes (ES cells; [1]): 0
- Amino acid metabolism: No. (regulated genes/genes of function) (ES cells; [1]): 2/23
- Apoptosis: % of genes regulated (ES cells; [1]): 7.4%
- Apoptosis: D, number of down-regulated genes (ES cells; [1]): 6
- Apoptosis: I, number of up-regulated genes (ES cells; [1]): 1
- Apoptosis: No. (regulated genes/genes of function) (ES cells; [1]): 7/94
- Calcium signaling pathway: % of genes regulated (ES cells; [1]): 21.9%
- Calcium signaling pathway: D, number of down-regulated genes (ES cells; [1]): 30
- Calcium signaling pathway: I, number of up-regulated genes (ES cells; [1]): 2
- Calcium signaling pathway: No. (regulated genes/genes of pathway) (ES cells; [1]): 32/146
- Cell adhesion molecules: % of genes regulated (ES cells; [1]): 22.7%
- Cell adhesion molecules: D, number of down-regulated genes (ES cells; [1]): 21
- Cell adhesion molecules: I, number of up-regulated genes (ES cells; [1]): 13
- Cell adhesion molecules: No. (regulated genes/genes of function) (ES cells; [1]): 34/150
- Cell communication: % of genes regulated (ES cells; [1]): 21.7%
- Cell communication: D, number of down-regulated genes (ES cells; [1]): 18
- Cell communication: I, number of up-regulated genes (ES cells; [1]): 2
- Cell communication: No. (regulated genes/genes of function) (ES cells; [1]): 20/92
- Cell cycle: % of genes regulated (ES cells; [1]): 3.7%
- Cell cycle: D, number of down-regulated genes (ES cells; [1]): 6
- Cell cycle: I, number of up-regulated genes (ES cells; [1]): 0
- Cell cycle: No. (regulated genes/genes of function) (ES cells; [1]): 6/163
- ECM-receptor interaction: % of genes regulated (ES cells; [1]): 25.7%
- ECM-receptor interaction: D, number of down-regulated genes (ES cells; [1]): 16
- ECM-receptor interaction: I, number of up-regulated genes (ES cells; [1]): 3
- ECM-receptor interaction: No. (regulated genes/genes of pathway) (ES cells; [1]): 19/74
- Insulin signaling pathway: % of genes regulated (ES cells; [1]): 4.9%
- Insulin signaling pathway: D, number of down-regulated genes (ES cells; [1]): 3
- Insulin signaling pathway: I, number of up-regulated genes (ES cells; [1]): 2
- Insulin signaling pathway: No. (regulated genes/genes of pathway) (ES cells; [1]): 5/102
- JAK-STAT signaling pathway: % of genes regulated (ES cells; [1]): 25%
- JAK-STAT signaling pathway: D, number of down-regulated genes (ES cells; [1]): 27
- JAK-STAT signaling pathway: I, number of up-regulated genes (ES cells; [1]): 8
- JAK-STAT signaling pathway: No. (regulated genes/genes of pathway) (ES cells; [1]): 35/140
- Lipid metabolism: % of genes regulated (ES cells; [1]): 12.8%
- Lipid metabolism: D, number of down-regulated genes (ES cells; [1]): 12
- Lipid metabolism: I, number of up-regulated genes (ES cells; [1]): 2
- Lipid metabolism: No. (regulated genes/genes of function) (ES cells; [1]): 10/109
- MAPK signaling: % of genes regulated (ES cells; [1]): 10.6%
- MAPK signaling: D, number of down-regulated genes (ES cells; [1]): 19
- MAPK signaling: I, number of up-regulated genes (ES cells; [1]): 5
- MAPK signaling: No. (regulated genes/genes of pathway) (ES cells; [1]): 24/227
- PPAR signaling pathway: % of genes regulated (ES cells; [1]): 36.5%
- PPAR signaling pathway: D, number of down-regulated genes (ES cells; [1]): 14
- PPAR signaling pathway: I, number of up-regulated genes (ES cells; [1]): 12
- PPAR signaling pathway: No. (regulated genes/genes of pathway) (ES cells; [1]): 27/74
- TGF-β signaling pathway: % of genes regulated (ES cells; [1]): 13.3%
- TGF-β signaling pathway: D, number of down-regulated genes (ES cells; [1]): 1
- TGF-β signaling pathway: I, number of up-regulated genes (ES cells; [1]): 5
- TGF-β signaling pathway: No. (regulated genes/genes of pathway) (ES cells; [1]): 6/45
- VEGF signaling pathway: % of genes regulated (ES cells; [1]): 0%
- VEGF signaling pathway: D, number of down-regulated genes (ES cells; [1]): 0
- VEGF signaling pathway: I, number of up-regulated genes (ES cells; [1]): 0
- VEGF signaling pathway: No. (regulated genes/genes of pathway) (ES cells; [1]): 0/31
- Wnt signaling pathway: % of genes regulated (ES cells; [1]): 9.1%
- Wnt signaling pathway: D, number of down-regulated genes (ES cells; [1]): 6
- Wnt signaling pathway: I, number of up-regulated genes (ES cells; [1]): 0
- Wnt signaling pathway: No. (regulated genes/genes of pathway) (ES cells; [1]): 6/66
- focal adhesion: % of genes regulated (ES cells; [1]): 12.7%
- focal adhesion: D, number of down-regulated genes (ES cells; [1]): 20
- focal adhesion: I, number of up-regulated genes (ES cells; [1]): 2
- focal adhesion: No. (regulated genes/genes of function) (ES cells; [1]): 22/173
- tight junction: % of genes regulated (ES cells; [1]): 16.7%
- tight junction: D, number of down-regulated genes (ES cells; [1]): 9
- tight junction: I, number of up-regulated genes (ES cells; [1]): 2
- tight junction: No. (regulated genes/genes of function) (ES cells; [1]): 11/66
- pathways of the genes significantly regulated (ES cells; ES cells cultured with the BP-containing medium, result in words): majorly involved in the PPAR, ECM-receptor interaction, and/or Jak-Stat signaling pathways
- expression levels of AP, Nanog and SSEA1 in the obtained iPS cells (iPS cells): higher expression levels of AP, Nanog, and SSEA1
